Data taken from patent publication US9907791B2, “Ron inhibitors for use in preventing and treating bone loss” (UNIVERSITY OF UTAH RESEARCH FOUNDATION, priority 2014, dated 2018).

Columns and labels:
[1] = test system: bone marrow osteoclasts; test: Osteoclast survival assay; assay type: cell-based, mice; settings: 10 μM Src inhibitor daily from day 7 for 48 hours, with MSP
Protocol: Bone marrow precursor cells were thawed and seeded at a density of 2×10^5 cells per well in a 24-well plate containing glass coverslips in α-MEM media containing 10% FBS and antibiotics. After adhering overnight, media was removed and media containing 33 ng/mL hM-CSF and 9 ng/mL muRANKL was added. Cells were allowed to differentiate for 7 days with media changed every 3 days. Coverslips were then imaged microscopically using phase contrast to determine osteoclast number in each well. To test survival, factor-containing media was removed and α-MEM media containing 10% FBS was added as well as MSP as indicated. Cells were cultured for an additional 48 hours, fixed with 10% NBF for 10 minutes and washed with 1×PBS. For TRAP fluorescent staining, the leukocyte acid phosphatase kit (Sigma, St. Louis, Mo.) was used according to the manufacturer's instructions, with the substitution of 200 μM ELF97 (Invitrogen, Waltham, Mass.) as a phosphatase substrate. Coverslips were incubated in TRAP solution for 15 minutes at 37 degrees, washed with 1×PBS and counterstained with DAPI. The number of multinucleated TRAP+ cells (containing 4 or more nuclei) within 5 representative fields were included for quantification. Experiments were performed in triplicate.

[2] = test system: PyMT-MSP tumor cells; test: Intratibial PyMT-MSP tumor-induced osteolysis; assay type: in vivo, mice
From the text: (§1) All procedures involving mice and experimental protocols were approved by the Institutional Animal Care and Use Committee (IACUC) of the University of Utah. The RonTK−/− mice which reside on the FVB background, were crossed with NOD.SCID mice for an immune-compromised mouse model. As a control, wild-type FVB mice were also crossed with NOD.SCID mice. The STK−/− mice, which are on a C57BL/6 background, were compared to wild-type C57BL/6 mice as controls. Mice for all experiments were 6 to 8 weeks of age. For intratibial injections, 1×10^5 (PyMTor DU4475) or 3×10^5 (MDA-MB-231) tumor cells were resuspended in 10 μL matrigel and injected into the right tibia of anesthetized female FVB (PyMT) or NOD.SCID mice carrying various alleles of RON. Osteolysis was assessed by X-ray radiography. Dissected hindlimbs from mice sacrificed at the final time point in each experiment were placed in the Kodak In-vivo Multispectral Imaging System FX and exposed to X-ray radiography at 35 kV for 100 sec. Excess tumor tissue was removed from the bones prior to X-ray. Osteolytic lesions were quantified using Image J software (NCBI). All images were compared to the contralateral leg as an internal control.
Hindlimb bones were excised from mice at the time of sacrifice and bones were fixed in 10% neutral-buffered formalin, decalcified in Formical-2000 (Decal Corporation, Tallman, N.Y.) for 8 days and embedded in paraffin for hematoxylin and eosin (H & E) or immunohistochemical staining. Osteoclast number was assessed as TRAP^+ multinucleated cells containing 4 or more nuclei and reported as TRAP^+ cells per field. Three sections per mouse and 5 fields per section were used for quantification with fields representing the entire length of the tibia. Tumor proliferation rate was reported as the number of cells which were positive for phospho-H3 staining compared to the number of unstained cells per field expressed as a percent. Three sections per mouse and 5 fields per section were used for quantification with analysis being restricted to within the bone marrow cavity. Immunohistochemical analysis was performed with heat-induced antigen retrieval in sodium-citrate buffer (Dako, Denmark). Primary antibodies used were anti-TRAP at 1:50 (Santa Cruz, sc-30833, Dallas, Tex.), anti-Ki67 at 1:100 (Santa Cruz, sc-12202S, Dallas, Tex.), anti-phosphoH3 at 1:100 (Cell Signaling, #9701, Beverly, Mass.), anti-NFATc1 at 1:50 (Santa Cruz, sc-13033, Dallas, Tex.), and anti-RON at 1:250 (Santa Cruz, sc-322, Dallas, Tex.). Bones from mice lacking RON were used as a negative control. Biotinylated secondary antibody was used with the EnVision^+ system HRP kit (Dako, Denmark) and nuclei counterstained with hematoxylin.
For in vivo experiments, the OSI-296 inhibitor was dissolved in 40% Trappsol with 0.01 M HCl, and mice were treated at a concentration of 200 mg/kg daily by oral gavage. Treatment began either 3 days after tumor cell injection for prophylactic experiments, or 3 weeks after tumor cell injection for therapeutic experiments. ASLAN002 was dissolved in 70% PEG400 with 1×PBS and mice were treated at a concentration of 50 mg/kg daily by oral gavage. muRANK-Fc was given at a concentration of 10 mg/kg every three days by intra-peritoneal injection. For the osteoporosis study, mice were treated beginning on the day after ovary removal. The treatment regimen for OSI-296 was 200 mg/kg every other day by oral gavage. ASLAN002 was administered at 50 mg/kg every other day by oral gavage. Treatment continued until the time of sacrifice at 28 days.

[3] = test system: PyMT control tumor cells; test: Intratibial PyMT control tumor-induced osteolysis; assay type: in vivo, mice; settings: WT mice, treatment began 3 days post injection, sacrificed 42 days post injection
From the text: as §1
(§2) For in vivo experiments, the OSI-296 inhibitor was dissolved in 40% Trappsol with 0.01 M HCl, and mice were treated at a concentration of 200 mg/kg daily by oral gavage. […]

[4] = test system: MSP-overexpressing MDA-MB-231 cells; test: Intratibial MSP-overexpressing MDA-MB-231 tumor-induced osteolysis; assay type: in vivo, NOD.SCID mice; settings: treated 3 days post tumor cell injection, sacrificed 30 days
From the text: as §1, §2

[5] = test system: bone marrow osteoclasts; test: Osteoclast resorption assay; assay type: cell-based, mice; settings: WT osteoclasts, inhibitors 10 μM or muRANK-Fc 10 μg/mL daily day 9 to 12
Protocol: Bone marrow osteoclasts were generated from 6 to 8 week old WT and RonTK−/− mice. Briefly, bone marrow was isolated from hindlimb bones and plated in α-MEM media containing 10% heat-inactivated fetal bovine serum (FBS, Sigma, St. Louis, Mo.), 100 units/mL penicillin-streptomycin (Hyclone), and 33 ng/mL human macrophage colony-stimulating factor (hM-CSF) (PeproTech, Rocky Hill, N.J.) for 24 hours. Non-adherent cells were collected and frozen for later use. To assess resorption activity, bone marrow precursor cells were thawed and seeded at a density of 1×10^5 cells per well in BioCoat Osteologic slides (BD Biosciences, San Jose, Calif.) in α-MEM media containing 10% FBS and antibiotics. After adhering overnight, media was removed and media containing 33 ng/mL hM-CSF and 9 ng/mL muRANKL (R & D systems, Minneapolis, Minn.) was added. The medium was changed every 3 days depending on acidification, and the assay was terminated as indicated. Recombinant human MSP was prepared and added daily as indicated. Cells were removed with 6% bleach and slides were viewed microscopically using phase-contrast with 20× magnification. Osteolytic resorption area within 5 representative fields was determined using Image J software, experiments were performed in triplicate. […]

[6] = biological target: RON (Homo sapiens, UniProt Q04912); settings: from the cited IC50 values; cited from earlier work
Chain of RON (Q04912 25-1400): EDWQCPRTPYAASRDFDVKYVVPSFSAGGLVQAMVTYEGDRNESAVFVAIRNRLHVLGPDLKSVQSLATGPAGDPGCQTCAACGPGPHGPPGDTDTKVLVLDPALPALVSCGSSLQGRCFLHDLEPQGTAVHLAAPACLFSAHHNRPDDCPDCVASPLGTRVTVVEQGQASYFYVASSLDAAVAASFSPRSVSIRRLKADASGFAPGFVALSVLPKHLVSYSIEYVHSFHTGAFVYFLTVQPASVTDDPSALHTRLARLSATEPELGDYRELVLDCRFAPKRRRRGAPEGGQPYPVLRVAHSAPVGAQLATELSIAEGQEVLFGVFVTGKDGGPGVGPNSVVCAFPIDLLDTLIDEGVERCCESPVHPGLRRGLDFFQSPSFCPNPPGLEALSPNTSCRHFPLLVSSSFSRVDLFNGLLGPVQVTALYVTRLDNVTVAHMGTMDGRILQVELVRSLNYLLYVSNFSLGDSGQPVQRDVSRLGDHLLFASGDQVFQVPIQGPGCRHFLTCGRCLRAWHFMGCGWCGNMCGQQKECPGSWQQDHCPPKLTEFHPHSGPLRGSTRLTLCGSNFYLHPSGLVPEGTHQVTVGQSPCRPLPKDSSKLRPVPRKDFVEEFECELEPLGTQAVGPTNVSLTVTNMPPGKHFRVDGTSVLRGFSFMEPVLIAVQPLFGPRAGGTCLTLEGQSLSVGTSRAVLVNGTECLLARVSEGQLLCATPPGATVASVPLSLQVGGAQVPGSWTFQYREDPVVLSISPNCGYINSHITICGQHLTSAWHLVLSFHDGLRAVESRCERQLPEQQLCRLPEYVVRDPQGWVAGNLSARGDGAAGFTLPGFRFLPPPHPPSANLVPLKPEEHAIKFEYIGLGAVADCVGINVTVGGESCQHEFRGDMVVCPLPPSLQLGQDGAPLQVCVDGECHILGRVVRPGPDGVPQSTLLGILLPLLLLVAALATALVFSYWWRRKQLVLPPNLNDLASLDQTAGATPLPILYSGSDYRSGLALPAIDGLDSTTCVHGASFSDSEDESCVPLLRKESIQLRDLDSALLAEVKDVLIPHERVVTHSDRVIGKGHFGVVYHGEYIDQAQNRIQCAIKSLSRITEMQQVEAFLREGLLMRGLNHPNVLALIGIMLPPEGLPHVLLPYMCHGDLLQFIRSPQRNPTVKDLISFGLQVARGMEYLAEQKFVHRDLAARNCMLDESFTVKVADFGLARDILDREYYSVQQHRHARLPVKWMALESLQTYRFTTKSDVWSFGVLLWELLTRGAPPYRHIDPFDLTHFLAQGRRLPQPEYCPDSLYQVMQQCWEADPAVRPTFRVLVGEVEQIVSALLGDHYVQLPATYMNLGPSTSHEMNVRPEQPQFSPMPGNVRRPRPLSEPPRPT

SMILES: CN1CCN(CCOc2cc(OC3CCOCC3)c3c(Nc4c(Cl)ccc5c4OCO5)ncnc3c2)CC1 [AZD0530]
- MSP-mediated osteoclast survival [1]: blocked MSP-mediated survival

SMILES: C[C@@H](Oc1c(N)ncc2c(C3=CCN(C(N)=O)CC3)coc12)c1c(Cl)ccc(F)c1Cl [OSI-296]
- inhibition of osteolysis ([2]; PyMT-MSP tumors, treatment beginning three days after tumor injection, average): 4-6 fold
- TRAP+ osteoclasts in tumor-bearing bones ([2]; TRAP staining of bone sections): no significant effect
- PyMT-MSP tumor growth in the bone ([2]; caliper measurements): reduced
- PyMT-MSP tumor proliferation rate in the bone ([2]; percent cells positive for phospho-H3): reduced
- progression of existing tumor-induced bone loss ([2]; post osteolysis treatment, about three weeks after tumor injection): prevent further tumor-induced bone loss
- osteolysis from PyMT control tumors (no MSP) [3]: did not have an effect
- osteolysis from MSP-expressing MDA-MB-231 tumor cells [4]: reduce MSP-mediated osteolysis to levels seen in control tumor cells
- MSP-induced increase in osteoclast resorption (resorption area) [5]: dramatically reduced
- selectivity between RON and Met [6]: more selective for Met
